Consider 1 compound from publication PMC2229492 (The Journal of General Physiology, 2000).

Structures are written as SMILES. Substitutions are numbered along the chain they refer to.

In test [1] the target is T1, rat olfactory CNG (OLF) channel (Rattus norvegicus, UniProt Q00195, W332Y).
T1 sequence (Q00195 1-664 W332Y): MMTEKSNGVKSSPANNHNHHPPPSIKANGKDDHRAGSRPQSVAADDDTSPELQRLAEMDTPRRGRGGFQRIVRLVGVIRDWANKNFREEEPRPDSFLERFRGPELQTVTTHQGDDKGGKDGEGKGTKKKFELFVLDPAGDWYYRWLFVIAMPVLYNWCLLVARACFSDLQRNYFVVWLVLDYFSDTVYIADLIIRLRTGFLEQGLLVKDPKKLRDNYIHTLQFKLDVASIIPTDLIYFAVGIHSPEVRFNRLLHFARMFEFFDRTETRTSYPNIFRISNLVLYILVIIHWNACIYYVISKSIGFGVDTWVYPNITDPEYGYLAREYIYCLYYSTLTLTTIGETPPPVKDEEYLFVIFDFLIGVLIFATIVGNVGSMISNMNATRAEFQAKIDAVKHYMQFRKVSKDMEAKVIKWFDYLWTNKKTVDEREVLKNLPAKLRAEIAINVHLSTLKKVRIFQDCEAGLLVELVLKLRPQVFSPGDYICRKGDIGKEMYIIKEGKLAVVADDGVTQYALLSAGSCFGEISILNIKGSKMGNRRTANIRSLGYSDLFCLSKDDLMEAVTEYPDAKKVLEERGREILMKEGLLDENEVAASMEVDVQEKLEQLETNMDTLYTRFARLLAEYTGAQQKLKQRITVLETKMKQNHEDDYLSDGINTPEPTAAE
In words: inside-out patch recording, cGMP dose-response. Format: cell-based.

Test [2] concerns the target T2, rat olfactory CNG (OLF) channel (Rattus norvegicus, UniProt Q00195).
T2 sequence (Q00195 1-664): T1 sequence (Q00195 1-664 W332Y) with Y332W
The test can be described thus: inside-out patch recording, cGMP dose-response. The format is cell-based.

Turning to `Nc1nc2c(ncn2[C@@H]2O[C@@H]3COP(=O)(O)O[C@H]3[C@H]2O)c(=O)[nH]1` [cGMP], the EC50 in test [1] is 17.7 µM; in test [2], 2.47 µM.
